13 molecules from ChEMBL document CHEMBL3091421, “Discovery of benzo[d]imidazo[5,1-b]thiazole as a new class of phosphodiesterase 10A inhibitors” (Bioorg Med Chem Lett, 2013) can be followed below.

For series [1], the species on record is Homo sapiens. The experiment in a line: Selectivity ratio of IC50 for PDE5A (unknown origin) to IC50 for human recombinant PDE10A.
The target of series [2] is High affinity cAMP-specific and IBMX-insensitive 3',5'-cyclic phosphodiesterase 8A (Homo sapiens) (UniProt O60658). The experiment in a line: Inhibition of PDE8A (unknown origin) using [3H]-cAMP as substrate at 10 uM after 30 mins by radiometric assay.
Chain of High affinity cAMP-specific and IBMX-insensitive 3',5'-cyclic phosphodiesterase 8A (Homo sapiens) (O60658 whole entry): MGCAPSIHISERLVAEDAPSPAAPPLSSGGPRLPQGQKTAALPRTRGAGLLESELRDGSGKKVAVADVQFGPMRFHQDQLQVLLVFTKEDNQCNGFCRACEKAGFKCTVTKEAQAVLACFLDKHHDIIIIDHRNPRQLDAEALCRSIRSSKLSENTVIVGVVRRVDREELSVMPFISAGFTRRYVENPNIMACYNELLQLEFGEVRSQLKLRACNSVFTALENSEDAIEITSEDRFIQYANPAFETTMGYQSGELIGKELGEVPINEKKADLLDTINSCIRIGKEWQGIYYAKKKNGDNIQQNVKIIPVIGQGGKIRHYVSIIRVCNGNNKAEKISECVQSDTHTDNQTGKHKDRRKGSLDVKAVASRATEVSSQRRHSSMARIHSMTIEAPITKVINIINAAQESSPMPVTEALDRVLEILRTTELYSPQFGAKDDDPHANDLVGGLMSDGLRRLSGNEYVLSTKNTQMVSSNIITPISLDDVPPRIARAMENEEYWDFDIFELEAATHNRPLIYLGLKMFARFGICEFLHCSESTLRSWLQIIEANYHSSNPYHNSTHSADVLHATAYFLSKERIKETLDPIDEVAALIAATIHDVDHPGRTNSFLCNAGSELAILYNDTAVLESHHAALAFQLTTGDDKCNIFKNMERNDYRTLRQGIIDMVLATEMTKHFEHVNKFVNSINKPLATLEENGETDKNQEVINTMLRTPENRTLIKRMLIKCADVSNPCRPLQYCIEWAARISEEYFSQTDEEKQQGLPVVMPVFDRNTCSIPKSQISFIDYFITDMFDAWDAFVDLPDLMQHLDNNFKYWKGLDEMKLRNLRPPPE
The target of series [3] is High affinity 3',5'-cyclic-AMP phosphodiesterase 7A (Homo sapiens) (UniProt Q13946). The experiment in a line: Inhibition of PDE7A1 (unknown origin) using [3H]-cAMP as substrate at 10 uM after 30 mins by radiometric assay.
Chain of High affinity 3',5'-cyclic-AMP phosphodiesterase 7A (Homo sapiens) (Q13946 whole entry): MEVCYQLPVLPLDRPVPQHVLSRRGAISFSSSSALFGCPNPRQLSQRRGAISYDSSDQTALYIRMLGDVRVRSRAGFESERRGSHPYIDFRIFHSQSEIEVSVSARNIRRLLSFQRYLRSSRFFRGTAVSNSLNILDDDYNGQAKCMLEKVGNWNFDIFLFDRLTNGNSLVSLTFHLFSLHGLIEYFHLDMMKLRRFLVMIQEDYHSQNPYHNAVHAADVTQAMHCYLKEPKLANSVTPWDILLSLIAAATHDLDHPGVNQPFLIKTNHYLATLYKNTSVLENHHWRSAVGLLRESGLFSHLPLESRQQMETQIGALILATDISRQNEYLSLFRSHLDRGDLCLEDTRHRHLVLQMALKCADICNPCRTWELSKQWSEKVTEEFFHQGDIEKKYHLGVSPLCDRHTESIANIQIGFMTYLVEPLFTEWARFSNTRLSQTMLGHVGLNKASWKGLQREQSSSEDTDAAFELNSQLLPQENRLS
The target of series [4] is cAMP and cAMP-inhibited cGMP 3',5'-cyclic phosphodiesterase 10A (Homo sapiens, UniProt Q9Y233). The experiment in a line: Inhibition of human recombinant PDE10A using [3H]-cAMP/[3H]-cGMP as substrate after 30 mins by radiometric assay.
Chain of cAMP and cAMP-inhibited cGMP 3',5'-cyclic phosphodiesterase 10A (Q9Y233 whole entry): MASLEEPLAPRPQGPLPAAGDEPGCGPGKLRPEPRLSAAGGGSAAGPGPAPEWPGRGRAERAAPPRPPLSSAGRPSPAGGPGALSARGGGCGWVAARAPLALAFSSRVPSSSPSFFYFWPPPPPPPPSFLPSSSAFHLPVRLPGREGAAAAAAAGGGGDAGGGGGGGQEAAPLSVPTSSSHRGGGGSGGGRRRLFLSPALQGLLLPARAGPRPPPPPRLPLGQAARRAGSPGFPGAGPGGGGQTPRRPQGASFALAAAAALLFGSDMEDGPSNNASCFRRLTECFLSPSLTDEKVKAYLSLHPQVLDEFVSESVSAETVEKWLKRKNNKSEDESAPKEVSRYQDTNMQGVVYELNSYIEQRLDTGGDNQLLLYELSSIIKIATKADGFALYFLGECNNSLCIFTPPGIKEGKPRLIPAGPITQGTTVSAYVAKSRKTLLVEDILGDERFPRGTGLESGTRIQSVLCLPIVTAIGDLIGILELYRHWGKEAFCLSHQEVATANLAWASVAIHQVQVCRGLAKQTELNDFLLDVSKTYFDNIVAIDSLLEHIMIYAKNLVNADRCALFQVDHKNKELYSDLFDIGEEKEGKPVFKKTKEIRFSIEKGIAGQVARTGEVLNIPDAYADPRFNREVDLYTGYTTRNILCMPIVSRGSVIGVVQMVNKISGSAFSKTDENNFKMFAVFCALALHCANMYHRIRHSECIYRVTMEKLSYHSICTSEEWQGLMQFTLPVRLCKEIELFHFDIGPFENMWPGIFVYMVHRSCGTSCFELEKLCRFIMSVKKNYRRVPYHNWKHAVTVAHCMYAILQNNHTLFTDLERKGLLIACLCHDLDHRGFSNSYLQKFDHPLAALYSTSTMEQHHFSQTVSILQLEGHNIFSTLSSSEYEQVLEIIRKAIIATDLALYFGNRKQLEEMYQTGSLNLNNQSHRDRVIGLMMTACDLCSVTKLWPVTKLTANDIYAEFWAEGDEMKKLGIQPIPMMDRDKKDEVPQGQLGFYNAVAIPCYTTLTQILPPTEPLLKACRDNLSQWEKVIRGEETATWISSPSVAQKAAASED
A short description of series [5]: Metabolic stability in human liver microsomes assessed as compound remaining after 60 mins. Particulars: read-out: Stability. The class given is ADME.
Series [6] deals with cGMP-inhibited 3',5'-cyclic phosphodiesterase 3A (Homo sapiens) (UniProt Q14432). The experiment in a line: Inhibition of PDE3A (unknown origin) using cAMP as substrate at 10 uM after 30 mins by HTRF method.
Chain of cGMP-inhibited 3',5'-cyclic phosphodiesterase 3A (Homo sapiens) (Q14432 whole entry): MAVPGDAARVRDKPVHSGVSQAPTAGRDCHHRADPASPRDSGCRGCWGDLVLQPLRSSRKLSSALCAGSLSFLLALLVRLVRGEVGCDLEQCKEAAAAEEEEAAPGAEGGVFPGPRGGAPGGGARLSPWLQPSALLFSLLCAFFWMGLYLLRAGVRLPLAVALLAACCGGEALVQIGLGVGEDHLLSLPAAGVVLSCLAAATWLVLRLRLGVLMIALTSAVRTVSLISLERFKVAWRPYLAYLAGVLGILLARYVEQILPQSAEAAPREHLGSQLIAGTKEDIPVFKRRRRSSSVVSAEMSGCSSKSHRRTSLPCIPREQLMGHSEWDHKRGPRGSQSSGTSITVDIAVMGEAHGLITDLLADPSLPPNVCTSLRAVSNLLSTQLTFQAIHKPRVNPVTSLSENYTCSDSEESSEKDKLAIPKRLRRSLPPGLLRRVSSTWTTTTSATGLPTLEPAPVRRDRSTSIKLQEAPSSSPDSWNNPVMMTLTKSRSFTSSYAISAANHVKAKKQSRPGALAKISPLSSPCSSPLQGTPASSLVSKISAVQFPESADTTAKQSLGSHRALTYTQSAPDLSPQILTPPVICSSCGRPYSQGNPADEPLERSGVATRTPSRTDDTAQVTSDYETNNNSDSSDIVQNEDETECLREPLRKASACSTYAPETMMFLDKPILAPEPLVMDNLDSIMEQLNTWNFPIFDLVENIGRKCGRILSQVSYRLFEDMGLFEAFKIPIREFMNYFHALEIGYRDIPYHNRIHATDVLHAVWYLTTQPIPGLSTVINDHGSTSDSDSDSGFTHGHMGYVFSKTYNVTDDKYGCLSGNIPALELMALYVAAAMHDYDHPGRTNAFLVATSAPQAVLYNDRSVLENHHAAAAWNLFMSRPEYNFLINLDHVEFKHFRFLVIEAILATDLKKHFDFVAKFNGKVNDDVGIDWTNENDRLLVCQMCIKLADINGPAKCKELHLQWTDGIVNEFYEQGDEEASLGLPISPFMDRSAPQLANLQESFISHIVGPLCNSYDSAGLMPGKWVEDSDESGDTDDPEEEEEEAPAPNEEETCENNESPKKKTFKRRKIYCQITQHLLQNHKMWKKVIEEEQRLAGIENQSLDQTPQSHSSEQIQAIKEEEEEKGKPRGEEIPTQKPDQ
The target of series [7] is High affinity cGMP-specific 3',5'-cyclic phosphodiesterase 9A (Homo sapiens) (UniProt O76083). The experiment in a line: Inhibition of PDE9A2 (unknown origin) using [3H]-cGMP as substrate at 10 uM after 30 mins by radiometric assay.
Chain of High affinity cGMP-specific 3',5'-cyclic phosphodiesterase 9A (Homo sapiens) (O76083 whole entry): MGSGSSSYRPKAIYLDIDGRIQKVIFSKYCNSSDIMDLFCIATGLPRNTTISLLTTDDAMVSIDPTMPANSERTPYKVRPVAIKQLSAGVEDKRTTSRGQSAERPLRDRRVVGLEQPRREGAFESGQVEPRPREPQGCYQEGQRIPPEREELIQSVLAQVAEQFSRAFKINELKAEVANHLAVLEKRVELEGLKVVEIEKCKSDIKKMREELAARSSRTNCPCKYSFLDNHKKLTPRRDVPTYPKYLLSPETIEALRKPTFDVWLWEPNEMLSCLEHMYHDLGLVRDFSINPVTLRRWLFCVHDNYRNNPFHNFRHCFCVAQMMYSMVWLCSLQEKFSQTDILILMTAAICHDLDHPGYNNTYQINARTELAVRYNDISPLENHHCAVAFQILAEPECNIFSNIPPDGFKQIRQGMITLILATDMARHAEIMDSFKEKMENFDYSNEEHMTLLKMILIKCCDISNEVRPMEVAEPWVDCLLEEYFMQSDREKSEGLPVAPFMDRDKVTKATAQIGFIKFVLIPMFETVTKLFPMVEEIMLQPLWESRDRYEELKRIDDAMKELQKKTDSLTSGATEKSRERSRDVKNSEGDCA
For series [8], the species on record is Homo sapiens. The experiment in a line: Selectivity ratio of IC50 for PDE3A (unknown origin) to IC50 for human recombinant PDE10A.
For series [9], the species on record is Homo sapiens. The experiment in a line: Selectivity ratio of IC50 for PDE2A (unknown origin) to IC50 for human recombinant PDE10A.
For series [10], the species on record is Homo sapiens. The experiment in a line: Selectivity ratio of IC50 for PDE1A (unknown origin) to IC50 for human recombinant PDE10A.
Series [11] addresses cGMP-dependent 3',5'-cyclic phosphodiesterase (Homo sapiens) (UniProt O00408). The experiment in a line: Inhibition of PDE2A (unknown origin) using cAMP as substrate at 10 uM after 30 mins by HTRF method.
The target of series [12] is cGMP-specific 3',5'-cyclic phosphodiesterase (Homo sapiens) (UniProt O76074). The experiment in a line: Inhibition of PDE5A (unknown origin) using [3H]-cGMP as substrate at 10 uM after 30 mins by radiometric assay.
The species entered for series [13] is Homo sapiens. The experiment in a line: Selectivity ratio of IC50 for PDE11A (unknown origin) to IC50 for human recombinant PDE10A.
The species named for series [14] is Homo sapiens. The experiment in a line: Selectivity ratio of IC50 for PDE4D (unknown origin) to IC50 for human recombinant PDE10A.
For series [15], the species on record is Homo sapiens. The experiment in a line: Selectivity ratio of IC50 for PDE9A2 (unknown origin) to IC50 for human recombinant PDE10A.
The species entered for series [16] is Homo sapiens. The experiment in a line: Selectivity ratio of IC50 for PDE7A1 (unknown origin) to IC50 for human recombinant PDE10A.
The target of series [17] is Dual 3',5'-cyclic-AMP and -GMP phosphodiesterase 11A (Homo sapiens) (UniProt Q9HCR9). The experiment in a line: Inhibition of PDE11A (unknown origin) using [3H]-cAMP as substrate at 10 uM after 30 mins by radiometric assay.
The target of series [18] is 3',5'-cyclic-AMP phosphodiesterase 4D (Homo sapiens) (UniProt Q08499). The experiment in a line: Inhibition of PDE4D (unknown origin) using cAMP as substrate at 10 uM after 30 mins.
Chain of 3',5'-cyclic-AMP phosphodiesterase 4D (Homo sapiens) (Q08499 whole entry): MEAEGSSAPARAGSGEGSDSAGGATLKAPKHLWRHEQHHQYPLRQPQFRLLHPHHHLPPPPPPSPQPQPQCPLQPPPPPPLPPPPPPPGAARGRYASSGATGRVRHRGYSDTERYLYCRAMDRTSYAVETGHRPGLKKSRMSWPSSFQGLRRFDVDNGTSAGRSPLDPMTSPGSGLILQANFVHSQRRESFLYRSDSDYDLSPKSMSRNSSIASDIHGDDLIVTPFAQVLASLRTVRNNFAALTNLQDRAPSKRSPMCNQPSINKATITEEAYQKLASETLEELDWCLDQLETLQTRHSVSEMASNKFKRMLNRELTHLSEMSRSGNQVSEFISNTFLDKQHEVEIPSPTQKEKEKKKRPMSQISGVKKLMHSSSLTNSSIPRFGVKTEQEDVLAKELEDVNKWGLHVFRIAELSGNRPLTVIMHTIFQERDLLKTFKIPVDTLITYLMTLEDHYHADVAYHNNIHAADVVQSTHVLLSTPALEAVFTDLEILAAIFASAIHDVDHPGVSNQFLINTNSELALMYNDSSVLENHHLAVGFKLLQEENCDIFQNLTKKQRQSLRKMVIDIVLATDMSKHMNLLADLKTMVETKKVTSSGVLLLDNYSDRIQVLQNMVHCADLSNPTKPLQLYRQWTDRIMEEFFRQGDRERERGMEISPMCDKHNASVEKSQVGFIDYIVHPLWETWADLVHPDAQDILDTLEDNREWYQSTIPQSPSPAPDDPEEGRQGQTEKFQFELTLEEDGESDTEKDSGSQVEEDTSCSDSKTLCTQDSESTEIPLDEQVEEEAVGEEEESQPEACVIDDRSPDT
The species named for series [19] is Homo sapiens. The experiment in a line: Selectivity ratio of IC50 for PDE8A (unknown origin) to IC50 for human recombinant PDE10A.
Series [20] is described as follows: Metabolic stability in rat liver microsomes assessed as compound remaining after 60 mins. The class given is ADME. Particulars: read-out: Stability.
A short description of series [21]: Drug uptake in Sprague-Dawley rat brain at 10 mg/kg, po after 30 mins. The class given is ADME, organism-based. Also on record: dose 10 mg/kg, route oral. Conditions: read-out: Drug uptake.
The nature of series [22]: Ratio of drug level in brain to plasma in Sprague-Dawley rat at 10 mg/kg, po after 30 mins. The class given is ADME, organism-based. Also on record: dose 10 mg/kg, route oral. Particulars: brain and plasma, read-out: BPR.
A short description of series [23]: Plasma concentration in Sprague-Dawley rat at 10 mg/kg, po after 30 mins. It is filed as ADME, organism-based. Also noted: dose 10 mg/kg, route oral.
The test system of a further series is Rattus norvegicus. The experiment in a line: Antipsychotic activity in Sprague-Dawley rat psychosis model assessed as inhibition of MK-801-induced hyperlocomotion at 1 mg/kg, ip administered 5 mins prior to MK-801-challenge measured after 15 mins up to 1 hr. The class given is functional. Conditions: route intraperitoneal.

pIC50: −log10 of the molar value.

For the molecule `Cc1nc(-c2ccncc2)n2c1sc1cc(OCc3ccc4ccccc4n3)ccc12`, the Ratio IC50 in the series listed under Homo sapiens [1], in the series filed under Homo sapiens [8], in the series listed under Homo sapiens [9], in the series listed under Homo sapiens [10], in the series filed under Homo sapiens [13] and in the series listed under Homo sapiens [14] was over 500 in each case. Also, the Ratio IC50 in the series listed under Homo sapiens [15], in the series filed under Homo sapiens [16] and in the series listed under Homo sapiens [19] was over 500 each time. For the same molecule, the inhibition in series [2] is 0%; in series [3], 42.3%; in series [6], 26%; in [7] it was 22.8%; in series [11], 67.2%; in [12], 34%. Besides, the inhibition in series [17] was found to be 21.4%; in [18], 27.1%. The negative logarithm of the IC50 (pIC50) in series [4] is 8.31. Further, the results for the remaining at 1 h in series [5] and in series [20] were 5% and 22%, respectively.

With `Cc1nc(-c2ccnnc2)n2c1sc1cc(OCc3ccc4ccccc4n3)ccc12`, in series [4], the pIC50 was 7.86. The remaining at 1 h was found to be 30% in [5] and 3% in [20].

For the molecule `Cc1cc(-c2nc(C)c3sc4cc(OCc5ccc6ccccc6n5)ccc4n23)ccn1`, the pIC50 in [4] was 8.06. The remaining at 1 h was 5% in series [5] and 19% in series [20].

With `c1ccc2nc(COc3ccc4c(c3)sc3nnc(-c5ccncc5)n34)ccc2c1`, the pIC50 in series [4] is 6.18.

For `Cc1nc([C@]23COC[C@H]2C3)n2c1sc1cc(OCc3ccc4ccccc4n3)ccc12`, the concentration at 0.5 h in series [21] was found to be 732 ng/g; in series [23] it was 0.394 µg/mL. In series [4], the pIC50 was 8.29. The figures for the remaining at 1 h in series [5] and in series [20] were 44% and 70%, respectively. The Kp at 0.5 h in series [22] was 1.86.

Take `Cc1nc(C2CCOC2)n2c1sc1cc(OCc3ccc4ccccc4n3)ccc12` (configuration not stated): the pIC50 in series [4] was 7.73. Moreover, the remaining at 1 h in series [5] was 45%; in series [20], 37%.

With `Cc1nc([C@@]23COC[C@@H]2C3)n2c1sc1cc(OCc3ccc4ccccc4n3)ccc12`, the concentration at 0.5 h was determined as 430 ng/g in [21] and 0.164 µg/mL in [23]. Also, the negative-log IC50 (pIC50) in series [4] was 8.16. In addition, the remaining at 1 h in series [5] turned out to be 37%; in series [20] it was 60%. For the same molecule, the Kp at 0.5 h in series [22] is 2.62.

On to `Cc1nc2n(c(=O)c1CCN1CCC(c3noc4cc(F)ccc34)CC1)CCCC2` [RISPERIDONE], for which the inhibition in vivo at 1 mg/kg in the series on Rattus norvegicus was 72%.

`Cc1nc(C)c(-c2nc(C)c3sc4cc(OCc5ccc6ccccc6n5)ccc4n23)s1`: the pIC50 in series [4] is 9.05. The remaining at 1 h is 3% in series [5] and 20% in series [20].

In the case of `Cc1nc(C2CNC2)n2c1sc1cc(OCc3ccc4ccccc4n3)ccc12`, the pIC50 in [4] is 6.80. Moreover, the values for the remaining at 1 h in [5] and in series [20] were 100% and 80%, respectively.

For `CC(=O)N1CC(c2nc(C)c3sc4cc(OCc5ccc6ccccc6n5)ccc4n23)C1`, the concentration at 0.5 h was determined as 62 ng/g in series [21] and 0.137 µg/mL in series [23]. Also, the pIC50 in series [4] is 8.17. Moreover, the remaining at 1 h in [5] amounted to 50%; in [20] it was 42%. Also, the Kp at 0.5 h in series [22] stood at 0.45.

For the molecule `Cc1nc2sc3cc(OCc4ccc5ccccc5n4)ccc3n2c1-c1ccncc1`, the pIC50 in series [4] is 6.45.

On to `CC(=O)N1CCC(c2nc(C)c3sc4cc(OCc5ccc6ccccc6n5)ccc4n23)CC1`, for which the concentration at 0.5 h in [21] amounted to 165 ng/g; in [23], 0.396 µg/mL. Also, the pIC50 in [4] is 8.05. In addition, the remaining at 1 h was determined as 76% in series [5] and 48% in [20]. The Kp at 0.5 h in series [22] came to 0.42.
